The record followed here is US6896895B2, “Carotenoid esters, carotenoid-enriched feeds, and methods of pigmenting foods and foodstuffs” (DSM IP Assets B.V., priority 2000, dated 2005).

Data set [1] is described as follows: Carotenoid ester content in plasma, back skin and abdominal fat of broilers (HPLC). Conditions: average over doses, Table 4. The data set is classed as in vivo, broiler chickens (Ross 308, Ross 508). The essentials: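 Ross 308/508 broilers, raised on low-carotenoid basal diet (<2 mg xanthophylls/kg) to day 15 or 22, then fed pigment-supplemented diet for three weeks; plasma sampled day 42, back skin and abdominal fat pooled per group at slaughter on day 44. Carotenoid esters quantified by normal-phase HPLC (0.5% acetone in n-hexane) calibrated with all-E ethyl β-apo-8′-carotenoate; Z-isomers corrected by factor 1.4.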

In data set [2] the test system is skin and shanks of broilers. The data set can be described thus: Reflectance colorimetry and visual classification of skin and shanks of broilers. The data set is classed as in vivo, broiler chickens (Ross 308, Ross 508). The arrangement: key to Shanks Visual Classification / Skin Visual Classification: −; (+); +; ++ = good color; o = orange. The conditions noted are these: dry carcasses, average over doses, Table 6. In a few lines: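 Ross broilers were fed a low-carotenoid basal diet (<2 mg xanthophylls/kg), then received pigment-supplemented diet for three weeks and were slaughtered on day 44. Back-skin colour (mean of three points) and shank colour (single reading) were measured by Minolta chromameter (D65, 0°) and reported as CIE L*a*b*, h* and C*, averaged over ten birds (5 male, 5 female).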

Data set [3] is described as follows: Carotenoid ester content and deposition rate in egg yolk of laying hens (HPLC). In kind it is in vivo, laying hens (ISA Brown). The conditions noted are these: egg yolk, trial H-25/99, 5.0 mg/kg feed. In a few lines: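 Hens were first depleted for at least 28 days on a low-carotenoid basal diet (<2 mg total xanthophylls/kg, also the control diet), then fed mash supplemented with the pigments ad libitum for three weeks. Pooled homogenised yolk was extracted with ethanol/n-hexane and analysed by HPLC, calibrated with all-E ethyl β-apo-8′-carotenoate. Response factors were adjusted by molecular weight, and Z-isomers were corrected by a factor of 1.4.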

The test system of the next data set is egg yolk. Briefly: Egg yolk colour: reflectance colorimetry and Roche Yolk Colour Fan. The conditions noted are these: egg yolk, laying hens, trial H-25/99, 5.0 mg/kg feed. In kind it is in vivo, laying hens (ISA Brown). In a few lines: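 ISA Brown laying hens, depleted at least 28 days on low-carotenoid basal diet (<2 mg xanthophylls/kg), fed pigment-supplemented mash ad libitum for three weeks. Pooled yolks of three to six eggs scored with Roche Yolk Colour Fan and measured by reflectance colorimetry (D65, 8°) as CIE L*a*b*, h*, C*; values average four yolk pools.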

Regarding `CC(C=CC=C(C)C=CC1=C(C)CCCC1(C)C)=CC=CC=C(C)C=CC=C(C)C(=O)OCC(C)(C)C` [(8), 2,2-dimethylpropyl beta-apo-8′-carotenoate], in data set [1], the “Analytical Content as Equivalent of Ethyl β-apo-8′-carotenoate in % of control Fat” value is listed as 62%, the “Analytical Content as Equivalent of Ethyl β-apo-8′-carotenoate in % of control Plasma” value turned out to be 78% and the “Analytical Content as Equivalent of Ethyl β-apo-8′-carotenoate in % of control Skin” value worked out at 76%. In addition, in data set [2], the “Shanks Chroma C*ab % of Controls” value is on record as 98%, the “Shanks Color Hue h*ab % of Controls” value is recorded as 101%, the “Shanks Visual Classification” value is recorded as “(+)” and the “Skin Chroma C*ab % of Controls” value is 98%. Also, in data set [2], the “Skin Color Hue h*ab % of Controls” value worked out at 100% and the “Skin Visual Classification” value is on record as “(+)”. Moreover, in data set [3] (Table 8), the “Deposition Rate Target Values % of Controls” value stood at 89% and the “Ethyl β-apo-8′-carotenoate Equivalents % of Controls” value is recorded as 81%. In data set [3] (Table 10), the “Deposition Rate % of Controls” value is 89%. In the data set on egg yolk (Table 8), the “Color Fan Value % of Controls” value was found to be 108%. Besides, in the data set on egg yolk (Table 10), the “Chroma C*ab % of Controls” value was 94%, the “Color Fan Value % of Controls” value was 108% and the “Color Hue h*ab % of Controls” value is recorded as 101%.
